Measured values reported in patent US20060074032A1 (Academic Pharmaceuticals, Inc., priority 2000, published 2006).
Like-named read-outs stand apart in the source and are kept apart here.

How the values were obtained:
[1] = system: rat ileum; assay: Rat ileum GI contractility (isometric muscle contraction); details: for Deflection Magnitude, percentage change from control / Slow Wave Amplitude, percentage change from control / Slow Wave Frequency, percentage change from control: n = 5
Method: (§1) The ileum was harvested and placed in warmed (37° C.) Krebs […] buffer and oxygenated (95% O2 and 5% CO2). Segments approximately 4.5 cm long were placed on a transducer (Gilson Instruments) and a preload of 2 gm was applied. The tissue was placed in a chamber and bathed in Tyrode's solution (37.5° C.) and gassed with 95% O2 and 5% CO2. Muscle contractions were measured isometrically. After stable contractions were obtained, a study compound was added to the tissue bath and recordings made until a new steady state of contraction was obtained. Following a washout period, contractions were recorded during a new steady state period, then the procedure repeated with at a second dose of the drug being evaluated. Changes in contraction magnitude were recorded as the percentage change from baseline. This procedure is a modification of the technique described by Van Nueten and associates (Van Nueten, et al., Inhibition of dopamine receptors in the stomach: an explanation of the gastrokinetic properties of domperidone. Life Sciences 1978, 23:453-458).

[2] = system: rat colon; assay: Rat colon GI contractility (deflection magnitude); details: n = 5 per group
Method: as §1, with “23:453-458). […] A segment of rat colon was suspended in a constant temperature bath as described above, and the baseline parameters measured oxygenated Tyrode's solution without erythromycin or chiral isolates.” for “23:453-458).”

[3] = target: T1, IKs currents (Homo sapiens, UniProt P51787); details: cited from earlier work
T1 construct: expressed in transfected cells; host or cells: Xenopus oocytes injected with cRNA (pSP64 poly(A) constructs)
T1 sequence (P51787 whole entry): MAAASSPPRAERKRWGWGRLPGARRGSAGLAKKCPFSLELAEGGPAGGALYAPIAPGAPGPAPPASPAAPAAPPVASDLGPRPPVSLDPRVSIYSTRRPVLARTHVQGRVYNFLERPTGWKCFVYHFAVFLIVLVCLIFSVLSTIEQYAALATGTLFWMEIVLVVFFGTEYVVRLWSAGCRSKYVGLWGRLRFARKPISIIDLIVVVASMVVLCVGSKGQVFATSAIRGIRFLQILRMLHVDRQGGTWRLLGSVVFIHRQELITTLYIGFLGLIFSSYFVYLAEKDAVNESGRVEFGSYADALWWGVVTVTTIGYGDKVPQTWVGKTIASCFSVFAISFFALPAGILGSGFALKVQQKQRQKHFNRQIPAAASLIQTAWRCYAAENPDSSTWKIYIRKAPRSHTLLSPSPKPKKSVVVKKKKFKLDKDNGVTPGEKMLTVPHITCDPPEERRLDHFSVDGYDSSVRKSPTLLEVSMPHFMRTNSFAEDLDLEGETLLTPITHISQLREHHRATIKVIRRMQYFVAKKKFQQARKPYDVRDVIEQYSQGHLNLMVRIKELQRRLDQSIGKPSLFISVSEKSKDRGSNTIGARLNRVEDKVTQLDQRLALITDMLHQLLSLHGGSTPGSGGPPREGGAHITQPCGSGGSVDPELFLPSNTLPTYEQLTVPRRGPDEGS

Erythromycin
Effect on slow contractile wave amplitude, slow wave frequency and magnitude of deflection, in words ([1]; 10^−7 M to 10^−5 M): dose-related increase | Deflection Magnitude, percentage change from control ([1]; erythromycin 10^−5 M): 33% | Slow Wave Amplitude, percentage change from control ([1]; erythromycin 10^−5 M): 17% | Slow Wave Frequency, percentage change from control ([1]; erythromycin 10^−5 M): 27% | Deflection Magnitude, percentage change from control ([1]; erythromycin 10^−6 M): 22% | Slow Wave Amplitude, percentage change from control ([1]; erythromycin 10^−6 M): 15% | Slow Wave Frequency, percentage change from control ([1]; erythromycin 10^−6 M): 21% | Deflection Magnitude, percentage change from control ([1]; erythromycin 10^−7 M): 14% | Slow Wave Amplitude, percentage change from control ([1]; erythromycin 10^−7 M): 12% | Slow Wave Frequency, percentage change from control ([1]; erythromycin 10^−7 M): 14% | Percent Change in Deflection Magnitude, change from control ([2]; 10^−5 M): 95% | Percent Change in Deflection Magnitude, change from control ([2]; 10^−6 M): 70% | Percent Change in Deflection Magnitude, change from control ([2]; 10^−7 M): 33%

C=C[C@H]1C[N@@]2CC[C@H]1C[C@@H]2[C@@H](O)c1ccnc2ccc(OC)cc12 [quinidine]
Reduction of IKs currents ([3]; quinidine 10^−4 M): 52% | Reduction of IKs currents ([3]; quinidine 10^−6 M): 14%
